What is called pKa is the pH at which an ionisable group is half protonated. High values mean a weaker acid or stronger base, low ones a stronger acid or weaker base.

The nature of this data set: Dissociation constant, pKa of compound. In kind it is physicochemical.
`Nc1ccc(C#CC#Cc2ccc(O)cc2)cc1` displayed a pKa of 2.8. Take `Nc1ccc(C#CC#Cc2ccccc2)cc1`: the pKa was 2.7. The value for `Oc1ccc(C#CC#Cc2ccccc2)cc1F` was 7.9; that for `C(C#Cc1ccncc1)#Cc1ccccc1` was 3.3; that for `Oc1c(F)cc(C#CC#Cc2ccccc2)cc1F` was 6.2. The value for `Nc1ccc(C#CC#Cc2ccccc2)c(O)c1` was 2.7; that for `Nc1cc(C#CC#Cc2ccccc2)ccn1` was 5; that for `Nc1cccc(C#CC#Cc2ccccc2)c1` was 3.5. The compound `Oc1ccc(C#CC#Cc2ccccc2)c(F)c1` returned a pKa of 8.5.

As to `Oc1ccc(C#CC#Cc2ccccc2)cc1`, the pKa was found to be 9.5. Turning to `O=S(=O)(Nc1ccc(C#CC#Cc2ccccc2)cc1)C(F)(F)F`, the pKa was determined as 4.1.

As for `C(C#Cc1c[nH]cn1)#Cc1ccccc1`, the pKa was 4.

The record behind these values is ChEMBL document CHEMBL5226301, “Toward Raman Subcellular Imaging of Endothelial Dysfunction” (J Med Chem, 2021).
